Data on 18 compounds can be found in PubChem BioAssay AID330 (DTP/NCI, 2004).

In this assay the test system is P388 leukemia ip, CD2F1 mice, survival T/C. The experiment in a line: NCI In Vivo Anticancer Drug Screen. Data for tumor model P388 Leukemia (intraperitoneal) in CD2F1 (CDF1) mice. As to conditions: endpoint: median survival time, higher = longer survival. In short, it runs like this: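 Mice carrying the transplanted tumor received test compound or vehicle. Survival was recorded in each group, and the value is the treated-group measurement divided by that of the vehicle-treated control group.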

The mark [1] stands for this setting: dose: 50.0 mg/kg/injection, schedule: Q01DX009 (ip), vehicle: saline with Tween-80.
The mark [2] stands for this setting: dose: 100.0 mg/kg/injection, schedule: Q01DX009 (ip), vehicle: saline with Tween-80.
Where [3] appears, read: dose: 100.0 mg/kg/injection, schedule: Q04DX003 (ip), vehicle: saline with Tween-80.
Setting [4] is: dose: 200.0 mg/kg/injection, schedule: Q01DX009 (ip), vehicle: saline with Tween-80.
[5] abbreviates: dose: 50.0 mg/kg/injection, schedule: Q01DX009 (ip), vehicle: Klucel (hydroxypropylcellulose) (HPC).
The mark [6] stands for this setting: dose: 100.0 mg/kg/injection, schedule: Q01DX009 (ip), vehicle: Klucel (hydroxypropylcellulose) (HPC).
Where [7] appears, read: dose: 50.0 mg/kg/injection, schedule: Q01DX009 (ip), vehicle: saline.

SMILES strings stand for the structures. “And” between values parts separate entries of the source, which are not always exact repeats. Identical values can stand only once. Inconclusive results and toxic doses are left out.

On to `Cc1nc(Cl)c(C)c(C(=O)O)n1`, for which the T/C was 117 % of control (dose: 6.25 mg/kg/injection, schedule: Q01DX009 (ip), vehicle: other); 114 % of control (dose: 12.5 mg/kg/injection, schedule: Q01DX009 (ip), vehicle: other); 107 % of control (dose: 25.0 mg/kg/injection, schedule: Q01DX009 (ip), vehicle: other); 99 % of control (dose: 50.0 mg/kg/injection, schedule: Q01DX009 (ip), vehicle: other); 98 % of control (dose: 100.0 mg/kg/injection, schedule: Q01DX009 (ip), vehicle: other).
Regarding `Cc1cc(NCCCN(C)C)c2cc3ccc4cccc5ccc(c2n1)c3c45`, the T/C is 109 % of control under setting [1] and 108 % of control under setting [2].
Regarding `CC(=O)C1=C(C)NC(C)=C(C(C)=O)C1c1cccc([N+](=O)[O-])c1`, the T/C (dose: 25.0 mg/kg/injection, schedule: Q04DX003 (ip), vehicle: saline with Tween-80) was 100 % of control; the T/C (dose: 50.0 mg/kg/injection, schedule: Q04DX003 (ip), vehicle: saline with Tween-80) is 100 % of control; the T/C under setting [3] was 100 % of control and 91 % of control.
With `CC(C)c1cc(C(=O)O)c(O)c(C(C)C)c1.CC(C)c1cc(C(=O)O)c(O)c(C(C)C)c1.[Mn]`, the T/C is 104 % of control and 106 % of control (dose: 15.0 mg/kg/injection, schedule: Q01DX005 (ip), vehicle: Klucel (hydroxypropylcellulose) (HPC)); 101 % of control (dose: 15.0 mg/kg/injection, schedule: Q01DX005 (ip), vehicle: other); 110 % of control and 114 % of control (dose: 30.0 mg/kg/injection, schedule: Q01DX005 (ip), vehicle: Klucel (hydroxypropylcellulose) (HPC)); 105 % of control and 109 % of control (dose: 30.0 mg/kg/injection, schedule: Q01DX005 (ip), vehicle: other); 116 % of control and 117 % of control and 120 % of control (dose: 60.0 mg/kg/injection, schedule: Q01DX005 (ip), vehicle: Klucel (hydroxypropylcellulose) (HPC)); 114 % of control and 95 % of control (dose: 60.0 mg/kg/injection, schedule: Q01DX005 (ip), vehicle: other). For the same compound, the T/C is, setting by setting: (dose: 120.0 mg/kg/injection, schedule: Q01DX005 (ip), vehicle: Klucel (hydroxypropylcellulose) (HPC)) 112 % of control and 116 % of control; (dose: 120.0 mg/kg/injection, schedule: Q01DX005 (ip), vehicle: other) 114 % of control and 87 % of control; (dose: 240.0 mg/kg/injection, schedule: Q01DX005 (ip), vehicle: other) 100 % of control.
Take `CCN(CC)P(=O)(N1CC1C)N1CC1C` (stereo not drawn): the T/C reads like this: (dose: 33.0 mg/kg/injection, schedule: Q04DX003 (ip), vehicle: saline) 109 % of control; (dose: 75.0 mg/kg/injection, schedule: Q04DX003 (ip), vehicle: saline) 150 % of control.
For `COC(=O)C1=C(C)NC(=O)NC1c1ccc(N(CCCl)CCCl)c(OC)c1` (stereo not drawn), the T/C is, setting by setting: (dose: 1.56 mg/kg/injection, schedule: Q01DX009 (ip), vehicle: saline with Tween-80) 160 % of control; (dose: 3.13 mg/kg/injection, schedule: Q01DX009 (ip), vehicle: saline with Tween-80) 186 % of control; (dose: 6.25 mg/kg/injection, schedule: Q01DX009 (ip), vehicle: saline with Tween-80) 117 % of control; (dose: 12.5 mg/kg/injection, schedule: Q01DX009 (ip), vehicle: saline with Tween-80) 96 % of control.
With `COc1ccc(C(=O)O)cc1`, the T/C is 101 % of control under setting [2]; 96 % of control under setting [4]; 109 % of control (dose: 400.0 mg/kg/injection, schedule: Q01DX009 (ip), vehicle: saline with Tween-80).
For the compound `O=C1C(Br)CCC1(c1ccccc1)c1ccccc1` (stereo not drawn), the T/C was 102 % of control (dose: 100.0 mg/kg/injection, schedule: Q01DX001 (ip), vehicle: Klucel (hydroxypropylcellulose) (HPC)); 106 % of control (dose: 200.0 mg/kg/injection, schedule: Q01DX001 (ip), vehicle: Klucel (hydroxypropylcellulose) (HPC)); 102 % of control (dose: 400.0 mg/kg/injection, schedule: Q01DX001 (ip), vehicle: Klucel (hydroxypropylcellulose) (HPC)).
As for `NC(=O)C[C@H](NP(=S)(c1ccccc1)c1ccccc1)C(=O)O`, the T/C under setting [5] is 102 % of control; the T/C under setting [6] is 98 % of control; the T/C (dose: 200.0 mg/kg/injection, schedule: Q01DX009 (ip), vehicle: Klucel (hydroxypropylcellulose) (HPC)) is 110 % of control.
On to `CC([NH-])C(C)[NH-].[Cl][Pt+2][Cl]` (stereo not drawn), for which the T/C reads like this: (dose: 3.12 mg/kg/injection, schedule: Q01DX001 (ip), vehicle: Klucel (hydroxypropylcellulose) (HPC)) 119 % of control; (dose: 12.5 mg/kg/injection, schedule: Q01DX001 (ip), vehicle: Klucel (hydroxypropylcellulose) (HPC)) 153 % of control and 154 % of control; (dose: 25.0 mg/kg/injection, schedule: Q01DX001 (ip), vehicle: Klucel (hydroxypropylcellulose) (HPC)) 184 % of control.
For the compound `Nc1nnnn1CCCl`, the T/C was 94 % of control (dose: 50.0 mg/kg/injection, schedule: Q01DX005 (ip), vehicle: saline with Tween-80); 103 % of control (dose: 100.0 mg/kg/injection, schedule: Q01DX005 (ip), vehicle: saline with Tween-80); 106 % of control (dose: 200.0 mg/kg/injection, schedule: Q01DX005 (ip), vehicle: saline with Tween-80).
Turning to `C=C(NC(=O)C(=C)NC(=O)c1csc(C2=NC3c4csc(n4)C4NC(=O)c5csc(n5)C(C(C)(O)C(C)O)NC(=O)C5CSC(=N5)/C(=C/C)NC(=O)C(C(C)O)NC(=O)c5csc(n5)C3(CC2)NC(=O)C(C)NC(=O)C(=C)NC(=O)C(=C)NC(=O)C(C(C)C)NC2C=Cc3c(C(C)O)cc(nc3C2O)C(=O)OC4C)n1)C(N)=O` (stereo not drawn), under setting [7], the T/C is 150 % of control.
In the case of `CC(=O)C(N=Nc1ccc(S(=O)(=O)N=C(N)N)cc1)C(C)=O`, the T/C was 90 % of control under setting [3]; 88 % of control (dose: 200.0 mg/kg/injection, schedule: Q04DX003 (ip), vehicle: saline with Tween-80); 87 % of control (dose: 400.0 mg/kg/injection, schedule: Q04DX003 (ip), vehicle: saline with Tween-80).
In the case of `COC(=O)c1ccc(=O)c2nc3/c(=C/O)c(O)c(C)c(=O)c3[nH]c12`, the T/C was 117 % of control (dose: 6.25 mg/kg/injection, schedule: Q01DX005 (ip), vehicle: other) and 122 % of control (dose: 12.5 mg/kg/injection, schedule: Q01DX005 (ip), vehicle: other).
With `O=[N+]([O-])CC(OCCCCCO)C(Cl)(Cl)Cl` (stereo not drawn), the T/C is 95 % of control under setting [1], 100 % of control under setting [2] and 86 % of control under setting [4].
Consider `CC(/C=C/c1ccccc1)=N\Nc1ccc(Cl)cc1Cl`, for which the T/C under setting [5] is 118 % of control and the T/C under setting [6] is 100 % of control.
Turning to `C[C@@]1(CO)[C@H](O)CC[C@@]2(C)[C@H]1CC[C@H]1C[C@@H]3C[C@@]12CC[C@@]3(O)COC(=O)CN`, the T/C (dose: 5.0 mg/kg/injection, schedule: Q03HX027 (ip), vehicle: saline + alcohol) is 113 % of control; the T/C (dose: 10.0 mg/kg/injection, schedule: Q03HX027 (ip), vehicle: saline + alcohol) was 118 % of control; the T/C (dose: 12.5 mg/kg/injection, schedule: Q01DX009 (ip), vehicle: saline) was 105 % of control and 107 % of control; the T/C (dose: 15.0 mg/kg/injection, schedule: Q01DX009 (ip), vehicle: saline + alcohol) was 118 % of control; the T/C (dose: 25.0 mg/kg/injection, schedule: Q01DX005 (iv), vehicle: saline) is 105 % of control; the T/C (dose: 25.0 mg/kg/injection, schedule: Q01DX009 (ip), vehicle: saline) is 107 % of control and 122 % of control. Besides, the T/C was 117 % of control (dose: 30.0 mg/kg/injection, schedule: Q01DX009 (ip), vehicle: saline + alcohol); 106 % of control (dose: 40.0 mg/kg/injection, schedule: Q03HX027 (ip), vehicle: saline + alcohol); 99 % of control (dose: 50.0 mg/kg/injection, schedule: Q01DX005 (iv), vehicle: saline); 114 % of control under setting [7]; 101 % of control (dose: 100.0 mg/kg/injection, schedule: Q01DX005 (iv), vehicle: saline); 122 % of control (dose: 100.0 mg/kg/injection, schedule: Q01DX009 (ip), vehicle: saline). Also, the T/C is 95 % of control (dose: 120.0 mg/kg/injection, schedule: Q01DX009 (ip), vehicle: saline + alcohol) and 115 % of control (dose: 200.0 mg/kg/injection, schedule: Q01DX005 (iv), vehicle: saline).
On to `O=C1c2ccccc2C(=O)c2c(NC(=O)C(F)(F)F)cccc21`, for which the T/C is 96 % of control (dose: 12.5 mg/kg/injection, schedule: Q01DX005 (ip), vehicle: Klucel (hydroxypropylcellulose) (HPC)); 93 % of control (dose: 25.0 mg/kg/injection, schedule: Q01DX005 (ip), vehicle: Klucel (hydroxypropylcellulose) (HPC)); 87 % of control and 89 % of control (dose: 50.0 mg/kg/injection, schedule: Q01DX005 (ip), vehicle: Klucel (hydroxypropylcellulose) (HPC)).
